Laboratory results published in ChEMBL document CHEMBL3758163, “Extended structure-activity study of thienopyrimidine-based EGFR inhibitors with evaluation of drug-like properties” (Eur J Med Chem, 2016).

Assays:
[1] = molecular target: Vascular endothelial growth factor receptor 1 (Homo sapiens) (UniProt P17948); assay: Inhibition of FLT1 (unknown origin) at 500 nM
[2] = molecular target: Mitogen-activated protein kinase 1 (Homo sapiens) (UniProt P28482); assay: Inhibition of MAPK1 (unknown origin) at 500 nM
[3] = molecular target: Hepatocyte growth factor receptor (Homo sapiens) (UniProt P08581); assay: Inhibition of MET (unknown origin) at 500 nM
[4] = molecular target: Protein kinase C beta type (Homo sapiens) (UniProt P05771); assay: Inhibition of PRKCB1 (unknown origin) at 500 nM
[5] = molecular target: Serine/threonine-protein kinase PLK1 (Homo sapiens) (UniProt P53350); assay: Inhibition of PLK1 (unknown origin) at 500 nM
[6] = molecular target: MAP kinase-activated protein kinase 2 (Homo sapiens) (UniProt P49137); assay: Inhibition of MAPKAPK2 (unknown origin) at 500 nM
[7] = molecular target: Aurora kinase B (Homo sapiens) (UniProt Q96GD4); assay: Inhibition of AURKB (unknown origin) at 500 nM
[8] = molecular target: Mitogen-activated protein kinase 8 (Homo sapiens) (UniProt P45983); assay: Inhibition of MAPK8 (unknown origin) at 500 nM
[9] = molecular target: Tyrosine-protein kinase Yes (Homo sapiens) (UniProt P07947); assay: Inhibition of YES1 (unknown origin) at 500 nM
[10] = molecular target: Serine/threonine-protein kinase pim-2 (Homo sapiens) (UniProt Q9P1W9); assay: Inhibition of PIM2 (unknown origin) at 500 nM
[11] = molecular target: Tyrosine-protein kinase SYK (Homo sapiens) (UniProt P43405); assay: Inhibition of SYK (unknown origin) at 500 nM
[12] = molecular target: Tyrosine-protein kinase ABL1 (Homo sapiens) (UniProt P00519); assay: Inhibition of ABL1 (unknown origin) at 500 nM
[13] = molecular target: Vascular endothelial growth factor receptor 3 (Homo sapiens) (UniProt P35916); assay: Inhibition of FLT4 (unknown origin) at 500 nM
Vascular endothelial growth factor receptor 3 (Homo sapiens), sequence (P35916 whole entry): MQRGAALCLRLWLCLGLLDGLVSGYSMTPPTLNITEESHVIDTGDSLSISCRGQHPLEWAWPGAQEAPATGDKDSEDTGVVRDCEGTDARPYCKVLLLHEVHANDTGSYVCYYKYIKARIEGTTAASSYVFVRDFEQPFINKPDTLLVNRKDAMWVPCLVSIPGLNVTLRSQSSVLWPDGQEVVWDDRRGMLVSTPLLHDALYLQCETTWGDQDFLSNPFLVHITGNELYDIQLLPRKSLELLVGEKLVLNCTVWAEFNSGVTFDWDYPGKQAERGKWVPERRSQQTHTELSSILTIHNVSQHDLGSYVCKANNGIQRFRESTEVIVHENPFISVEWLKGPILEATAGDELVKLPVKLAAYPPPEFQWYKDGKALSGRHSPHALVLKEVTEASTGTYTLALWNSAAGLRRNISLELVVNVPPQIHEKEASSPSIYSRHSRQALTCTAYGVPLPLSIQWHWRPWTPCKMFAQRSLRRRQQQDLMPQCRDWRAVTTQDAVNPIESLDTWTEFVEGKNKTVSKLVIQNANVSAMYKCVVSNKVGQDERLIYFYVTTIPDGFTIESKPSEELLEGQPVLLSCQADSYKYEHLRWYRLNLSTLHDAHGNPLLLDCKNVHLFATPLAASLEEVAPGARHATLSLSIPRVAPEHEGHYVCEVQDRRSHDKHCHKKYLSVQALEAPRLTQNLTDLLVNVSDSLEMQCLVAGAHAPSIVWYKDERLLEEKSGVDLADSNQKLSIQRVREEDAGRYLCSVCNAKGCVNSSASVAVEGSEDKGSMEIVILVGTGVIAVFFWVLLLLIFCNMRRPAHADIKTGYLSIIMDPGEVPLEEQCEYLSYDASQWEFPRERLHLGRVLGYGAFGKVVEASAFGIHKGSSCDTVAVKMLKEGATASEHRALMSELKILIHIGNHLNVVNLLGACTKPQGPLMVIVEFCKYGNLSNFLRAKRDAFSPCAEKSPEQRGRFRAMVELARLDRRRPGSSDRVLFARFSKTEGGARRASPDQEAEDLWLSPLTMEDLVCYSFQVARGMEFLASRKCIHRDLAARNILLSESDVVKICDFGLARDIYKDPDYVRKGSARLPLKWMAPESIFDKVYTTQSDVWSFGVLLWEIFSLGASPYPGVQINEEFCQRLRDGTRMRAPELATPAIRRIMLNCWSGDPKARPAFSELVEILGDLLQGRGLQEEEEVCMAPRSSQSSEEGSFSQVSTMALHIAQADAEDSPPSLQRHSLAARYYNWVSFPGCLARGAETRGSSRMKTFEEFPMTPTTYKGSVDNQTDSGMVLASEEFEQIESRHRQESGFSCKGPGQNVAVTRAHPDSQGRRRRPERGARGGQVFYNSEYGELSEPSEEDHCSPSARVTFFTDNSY

[14] = molecular target: Tyrosine-protein kinase CSK (Homo sapiens) (UniProt P41240); assay: Inhibition of CSK (unknown origin) at 500 nM
Tyrosine-protein kinase CSK (Homo sapiens), sequence (P41240 2-450 limits assumed): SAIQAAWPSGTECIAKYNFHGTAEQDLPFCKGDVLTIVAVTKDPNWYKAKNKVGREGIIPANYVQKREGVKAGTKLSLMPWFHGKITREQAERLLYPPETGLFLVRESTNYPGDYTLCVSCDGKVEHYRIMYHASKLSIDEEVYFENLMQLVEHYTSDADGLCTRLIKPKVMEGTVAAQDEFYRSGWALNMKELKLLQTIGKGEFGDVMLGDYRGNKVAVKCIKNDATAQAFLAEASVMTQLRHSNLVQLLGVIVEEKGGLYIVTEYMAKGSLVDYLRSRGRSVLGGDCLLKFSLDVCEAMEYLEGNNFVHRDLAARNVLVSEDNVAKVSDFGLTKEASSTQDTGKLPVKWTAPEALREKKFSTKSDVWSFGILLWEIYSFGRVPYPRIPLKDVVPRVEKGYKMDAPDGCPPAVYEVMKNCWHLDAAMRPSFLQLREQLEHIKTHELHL

[15] = molecular target: Receptor tyrosine-protein kinase erbB-2 (Homo sapiens) (UniProt P04626); assay: Inhibition of ERBB2 (unknown origin) at 500 nM
[16] = molecular target: Protein kinase C alpha type (Homo sapiens) (UniProt P17252); assay: Inhibition of PRKCA (unknown origin) at 500 nM
[17] = molecular target: Vascular endothelial growth factor receptor 2 (Homo sapiens) (UniProt P35968); assay: Inhibition of KDR (unknown origin) at 500 nM
Vascular endothelial growth factor receptor 2 (Homo sapiens), sequence (P35968 whole entry): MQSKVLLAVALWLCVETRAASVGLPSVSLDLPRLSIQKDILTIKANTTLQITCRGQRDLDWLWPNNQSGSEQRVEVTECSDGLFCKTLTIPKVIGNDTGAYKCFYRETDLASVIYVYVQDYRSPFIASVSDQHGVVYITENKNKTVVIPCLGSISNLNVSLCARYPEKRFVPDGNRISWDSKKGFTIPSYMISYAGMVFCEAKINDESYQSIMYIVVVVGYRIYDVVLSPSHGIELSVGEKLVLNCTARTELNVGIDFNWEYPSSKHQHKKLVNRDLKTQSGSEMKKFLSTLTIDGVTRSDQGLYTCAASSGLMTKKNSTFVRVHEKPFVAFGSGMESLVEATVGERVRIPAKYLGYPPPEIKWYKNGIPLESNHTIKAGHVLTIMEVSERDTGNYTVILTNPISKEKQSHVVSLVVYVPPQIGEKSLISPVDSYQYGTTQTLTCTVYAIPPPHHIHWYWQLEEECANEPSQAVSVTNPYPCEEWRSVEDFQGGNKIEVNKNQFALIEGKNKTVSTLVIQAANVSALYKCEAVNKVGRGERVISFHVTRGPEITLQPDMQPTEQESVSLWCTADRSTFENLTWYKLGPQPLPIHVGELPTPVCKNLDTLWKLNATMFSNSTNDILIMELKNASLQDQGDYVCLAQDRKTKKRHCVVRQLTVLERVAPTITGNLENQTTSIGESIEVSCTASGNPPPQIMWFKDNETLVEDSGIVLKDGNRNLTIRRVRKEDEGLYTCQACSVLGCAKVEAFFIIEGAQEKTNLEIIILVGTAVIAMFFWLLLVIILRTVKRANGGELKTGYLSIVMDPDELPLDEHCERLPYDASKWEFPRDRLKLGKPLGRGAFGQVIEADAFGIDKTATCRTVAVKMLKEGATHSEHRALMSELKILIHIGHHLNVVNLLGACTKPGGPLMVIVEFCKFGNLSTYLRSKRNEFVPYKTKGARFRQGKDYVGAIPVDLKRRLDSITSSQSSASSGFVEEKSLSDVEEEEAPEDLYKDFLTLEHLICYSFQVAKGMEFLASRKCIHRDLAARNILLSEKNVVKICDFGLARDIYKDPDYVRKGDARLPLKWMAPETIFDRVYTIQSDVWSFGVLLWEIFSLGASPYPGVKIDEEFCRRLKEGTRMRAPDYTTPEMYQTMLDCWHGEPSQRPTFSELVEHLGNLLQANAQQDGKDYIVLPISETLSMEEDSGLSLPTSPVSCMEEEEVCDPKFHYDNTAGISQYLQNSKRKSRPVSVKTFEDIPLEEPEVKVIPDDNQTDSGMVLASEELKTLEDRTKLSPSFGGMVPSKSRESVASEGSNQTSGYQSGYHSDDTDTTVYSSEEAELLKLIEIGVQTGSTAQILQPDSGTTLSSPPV

[18] = molecular target: T1, Aurora kinase A (Homo sapiens) (UniProt O14965); assay: Inhibition of AURKA (unknown origin) at 500 nM
T1 sequence (whole entry): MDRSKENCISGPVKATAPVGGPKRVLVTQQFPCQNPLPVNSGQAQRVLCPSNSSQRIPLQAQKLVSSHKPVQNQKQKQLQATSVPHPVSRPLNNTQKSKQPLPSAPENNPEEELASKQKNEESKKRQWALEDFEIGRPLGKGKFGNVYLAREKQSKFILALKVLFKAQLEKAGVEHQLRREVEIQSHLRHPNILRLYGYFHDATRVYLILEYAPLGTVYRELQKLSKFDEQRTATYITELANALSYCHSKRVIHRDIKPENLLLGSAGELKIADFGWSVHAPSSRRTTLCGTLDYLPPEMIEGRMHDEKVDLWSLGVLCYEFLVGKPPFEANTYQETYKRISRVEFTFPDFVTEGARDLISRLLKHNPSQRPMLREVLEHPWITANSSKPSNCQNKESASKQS

[19] = molecular target: Tyrosine-protein kinase HCK (Homo sapiens) (UniProt P08631); assay: Inhibition of HCK (unknown origin) at 500 nM
[20] = molecular target: Fibroblast growth factor receptor 1 (Homo sapiens) (UniProt P11362); assay: Inhibition of FGFR1 (unknown origin) at 500 nM
Fibroblast growth factor receptor 1 (Homo sapiens), sequence (P11362 22-822 limits assumed): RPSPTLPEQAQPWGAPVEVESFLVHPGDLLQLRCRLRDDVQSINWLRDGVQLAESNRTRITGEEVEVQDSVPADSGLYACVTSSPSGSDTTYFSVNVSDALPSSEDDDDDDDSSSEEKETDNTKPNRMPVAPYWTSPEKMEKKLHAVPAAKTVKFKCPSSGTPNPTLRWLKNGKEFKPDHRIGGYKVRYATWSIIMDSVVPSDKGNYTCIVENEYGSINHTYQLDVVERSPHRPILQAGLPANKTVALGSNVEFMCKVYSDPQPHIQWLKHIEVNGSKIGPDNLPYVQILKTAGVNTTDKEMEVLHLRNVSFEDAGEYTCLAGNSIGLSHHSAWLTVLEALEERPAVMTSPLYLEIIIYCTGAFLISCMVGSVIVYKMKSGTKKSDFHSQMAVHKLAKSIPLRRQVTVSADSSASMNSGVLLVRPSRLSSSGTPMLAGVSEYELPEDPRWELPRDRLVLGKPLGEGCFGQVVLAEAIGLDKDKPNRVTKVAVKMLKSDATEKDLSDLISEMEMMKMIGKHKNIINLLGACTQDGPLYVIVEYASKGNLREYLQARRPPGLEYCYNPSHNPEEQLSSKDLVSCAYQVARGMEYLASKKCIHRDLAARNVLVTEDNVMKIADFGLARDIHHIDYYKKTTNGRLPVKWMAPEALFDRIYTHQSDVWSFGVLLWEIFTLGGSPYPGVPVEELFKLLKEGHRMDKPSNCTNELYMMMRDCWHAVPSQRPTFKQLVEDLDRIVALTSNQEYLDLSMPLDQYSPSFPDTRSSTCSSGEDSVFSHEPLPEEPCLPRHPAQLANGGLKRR

[21] = molecular target: Epidermal growth factor receptor (Homo sapiens, UniProt P00533); assay: Inhibition of EGFR (unknown origin) by Z -LYTE assay
[22] = molecular target: Insulin-like growth factor 1 receptor (Homo sapiens) (UniProt P08069); assay: Inhibition of IGF1R (unknown origin) at 500 nM
[23] = molecular target: Tyrosine-protein kinase Fgr (Homo sapiens) (UniProt P09769); assay: Inhibition of FGR (unknown origin) at 500 nM
Tyrosine-protein kinase Fgr (Homo sapiens), sequence (P09769 2-529 limits assumed): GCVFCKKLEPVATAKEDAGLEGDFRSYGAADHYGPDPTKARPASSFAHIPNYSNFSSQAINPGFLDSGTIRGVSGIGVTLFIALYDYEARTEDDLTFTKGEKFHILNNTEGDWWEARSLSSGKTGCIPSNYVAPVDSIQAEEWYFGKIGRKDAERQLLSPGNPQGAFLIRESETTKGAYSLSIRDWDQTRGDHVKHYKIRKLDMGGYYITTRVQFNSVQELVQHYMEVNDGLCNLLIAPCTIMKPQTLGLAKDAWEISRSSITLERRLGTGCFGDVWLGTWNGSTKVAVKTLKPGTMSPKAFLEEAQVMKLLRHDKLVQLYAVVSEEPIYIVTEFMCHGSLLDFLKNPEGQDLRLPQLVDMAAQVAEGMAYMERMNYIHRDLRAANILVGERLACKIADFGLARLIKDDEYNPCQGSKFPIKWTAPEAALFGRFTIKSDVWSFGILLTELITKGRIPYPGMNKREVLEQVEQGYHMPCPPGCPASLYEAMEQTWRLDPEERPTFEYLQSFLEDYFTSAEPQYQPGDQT

[24] = molecular target: Dual specificity mitogen-activated protein kinase kinase 1 (Homo sapiens) (UniProt Q02750); assay: Inhibition of MAP2K1 (unknown origin) at 500 nM
Dual specificity mitogen-activated protein kinase kinase 1 (Homo sapiens), sequence (Q02750 whole entry): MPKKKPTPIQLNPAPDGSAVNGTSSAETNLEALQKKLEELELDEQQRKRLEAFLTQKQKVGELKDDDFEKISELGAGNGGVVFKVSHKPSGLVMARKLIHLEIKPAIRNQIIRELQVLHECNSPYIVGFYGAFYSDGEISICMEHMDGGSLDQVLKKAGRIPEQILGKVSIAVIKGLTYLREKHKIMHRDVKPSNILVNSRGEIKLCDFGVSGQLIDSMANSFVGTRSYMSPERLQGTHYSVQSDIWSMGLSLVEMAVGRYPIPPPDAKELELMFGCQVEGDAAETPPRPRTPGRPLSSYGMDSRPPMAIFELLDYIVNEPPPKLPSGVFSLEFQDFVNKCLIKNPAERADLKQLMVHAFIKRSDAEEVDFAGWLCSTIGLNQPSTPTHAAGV

[25] = molecular target: Focal adhesion kinase 1 (Homo sapiens) (UniProt Q05397); assay: Inhibition of PTK2 (unknown origin) at 500 nM
[26] = molecular target: Platelet-derived growth factor receptor alpha (Homo sapiens) (UniProt P16234); assay: Inhibition of PDGFRA (unknown origin) at 500 nM
[27] = molecular target: T2, Testis-specific serine/threonine-protein kinase 2 (Homo sapiens) (UniProt Q96PF2); assay: Inhibition of STK22B (unknown origin) at 500 nM
T2 sequence (whole entry): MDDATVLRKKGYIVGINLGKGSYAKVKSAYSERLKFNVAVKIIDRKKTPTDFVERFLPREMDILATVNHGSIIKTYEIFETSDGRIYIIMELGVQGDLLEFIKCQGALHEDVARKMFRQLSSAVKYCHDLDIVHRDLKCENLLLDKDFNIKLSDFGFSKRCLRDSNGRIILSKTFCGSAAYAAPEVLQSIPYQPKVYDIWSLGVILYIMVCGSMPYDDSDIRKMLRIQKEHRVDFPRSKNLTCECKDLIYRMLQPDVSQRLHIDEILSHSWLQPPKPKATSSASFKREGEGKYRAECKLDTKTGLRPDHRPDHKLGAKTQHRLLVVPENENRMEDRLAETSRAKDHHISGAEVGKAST

[28] = molecular target: Proto-oncogene tyrosine-protein kinase Src (Homo sapiens) (UniProt P12931); assay: Inhibition of SRC (unknown origin) at 500 nM

inhibition [1]	inhibition [2]	inhibition [3]	inhibition [4]	inhibition [5]	inhibition [6]	inhibition [7]	inhibition [8]	inhibition [9]	inhibition [10]	inhibition [11]	inhibition [12]	inhibition [13]	inhibition [14]	inhibition [15]	inhibition [16]	inhibition [17]	inhibition [18]	inhibition [19]	inhibition [20]	Compound	further results
9%	-6%	7%	-7%	2%	4%	10%	17%	20%	5%	38%	20%	9%	18%	32%	-1%	10%	-3%	28%	-4%	COc1cc(CO)ccc1-c1cc2c(Nc3ccccc3)ncnc2s1	IC50 [21]: 14 nM; inhibition [22]: -3%; inhibition [23]: 25%; inhibition [24]: 15%; inhibition [25]: 15%; inhibition [26]: 7%; inhibition [27]: 9%; inhibition [28]: 17%
2%	6%	-5%	-2%	6%	3%	7%	14%	14%	6%	11%	19%	8%	15%	48%	2%	3%	-6%	15%	-7%	COc1cc(CO)ccc1-c1cc2c(Nc3ccc(F)c(Cl)c3)ncnc2s1	IC50 [21]: 2 nM; inhibition [22]: -3%; inhibition [23]: 11%; inhibition [24]: 12%; inhibition [25]: 16%; inhibition [26]: 5%; inhibition [27]: 1%; inhibition [28]: 14%
